These results are taken from ChEMBL document CHEMBL3407496, “Chalcones and their therapeutic targets for the management of diabetes: structural and pharmacological perspectives” (Eur J Med Chem, 2015).

Molecules are shown by their SMILES.

The target of test [1] is T1, Tyrosine-protein phosphatase non-receptor type 1 (Homo sapiens, UniProt P18031).
T1 sequence (P18031 whole entry): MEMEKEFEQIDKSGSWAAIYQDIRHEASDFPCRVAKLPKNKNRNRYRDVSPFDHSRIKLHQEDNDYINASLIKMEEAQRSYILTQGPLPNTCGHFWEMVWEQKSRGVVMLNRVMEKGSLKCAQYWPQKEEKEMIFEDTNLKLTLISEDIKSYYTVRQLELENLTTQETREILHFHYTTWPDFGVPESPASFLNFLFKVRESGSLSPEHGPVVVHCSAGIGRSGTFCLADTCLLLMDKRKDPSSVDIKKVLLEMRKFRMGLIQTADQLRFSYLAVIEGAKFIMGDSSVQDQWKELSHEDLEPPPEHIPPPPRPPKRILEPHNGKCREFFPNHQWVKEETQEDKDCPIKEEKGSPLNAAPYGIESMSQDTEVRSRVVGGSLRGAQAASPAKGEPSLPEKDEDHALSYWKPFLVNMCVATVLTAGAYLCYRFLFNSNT
Description: Inhibition of PTP1B (unknown origin).

Test [2] in a line: Non-competitive inhibition of alpha-glucosidase (unknown origin). On the set-up: species or system Homo sapiens.
Test [3] addresses Aldo-keto reductase family 1 member B1 (Homo sapiens) (UniProt P15121). Description: Inhibition of aldose reductase (unknown origin) at 10 ug/ml.
For test [4] the target is unchanged. Description: Inhibition of ALR2 (unknown origin). The conditions noted are these: concentration not given here.
The species named for test [5] is Homo sapiens. Description: Inhibition of ALR1 (unknown origin). As to conditions: concentration not given here.
The target of test [6] is T2, Solute carrier family 2, facilitated glucose transporter member 4 (Rattus norvegicus) (UniProt P19357).
T2 sequence (whole entry): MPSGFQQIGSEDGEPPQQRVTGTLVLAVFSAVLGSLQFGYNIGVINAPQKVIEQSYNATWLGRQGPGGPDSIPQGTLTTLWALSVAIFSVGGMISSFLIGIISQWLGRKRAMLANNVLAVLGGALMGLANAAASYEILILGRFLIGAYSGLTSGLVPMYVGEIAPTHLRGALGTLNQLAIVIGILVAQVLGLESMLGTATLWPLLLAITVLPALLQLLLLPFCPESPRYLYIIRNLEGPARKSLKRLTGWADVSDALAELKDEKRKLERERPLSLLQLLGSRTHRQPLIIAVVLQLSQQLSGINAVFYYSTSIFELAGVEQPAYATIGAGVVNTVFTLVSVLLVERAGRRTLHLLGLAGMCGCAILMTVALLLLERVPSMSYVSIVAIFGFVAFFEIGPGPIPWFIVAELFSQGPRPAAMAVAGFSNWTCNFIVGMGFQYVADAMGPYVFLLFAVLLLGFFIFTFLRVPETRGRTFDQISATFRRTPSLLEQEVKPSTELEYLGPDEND
The test is described as follows: Induction of GLUT4 translocation in rat L6 cells assessed as increase in 2-deoxyglucose uptake relative to control. Type of test: cell-based.

The subject of test [7] is Oryctolagus cuniculus. The test is described as follows: Reduction of blood glucose in normoglycemic rabbit at 50 mg/kg, po after 4 hrs. The arrangement: scale not given: the % may be the effect or the level left. Type of test: functional.
Test [8] deals with T1, Tyrosine-protein phosphatase non-receptor type 1. Description: Competitive inhibition of PTP1B (unknown origin) using p-nitrophenyl phosphate as substrate.

In the case of `CC(C)=CCc1cc(C(=O)/C=C/c2ccc(O)c(O)c2)c(O)cc1O` [BROUSSOCHALCONE A], the results for the half-inhibitory concentration (IC50) in test [1] and in test [2] were 21.5 µM and 5.3 µM, respectively.
`CC(/C=C1\SC(=S)N(CC(=O)O)C1=O)=C\c1ccccc1` gave an inhibition in test [3] of 55.6%.
`COc1cc(O)c(CC=C(C)C)c(O)c1C(=O)/C(O)=C/c1ccc(O)cc1`: in test [3], the inhibition came to 53.7%.
As to `O=C(/C=C/c1ccc(Cl)cc1)c1ccc(O)cc1O`, the inhibition in test [4] and in test [5] was 35% throughout.
On to `CSc1ccc(/C=C/C(=O)c2ccc(O)cc2O)cc1`, for which the inhibition in test [4] and in test [5] was 35% in each case.
Regarding `COc1cc(O)c(CC=C(C)C)c(O)c1C(=O)/C=C/c1ccc(O)cc1` [XANTHOHUMOL], in test [2], the IC50 is 8.8 µM.
Consider `CC(C)=CCC/C(C)=C/Cc1c(O)ccc(C(=O)/C=C/c2ccc(O)cc2)c1O`, for which the Ratio in test [6] is 1.9.
For the compound `COc1ccc(/C=C/C(=O)c2ccc(OC)cc2O)cc1`, the inhibition in test [4] and in test [5] was 35% throughout.
In test [7], `Cc1ccc(S(=O)(=O)CC(=O)Cc2ccccc2C(=O)/C=C/c2ccc(Cl)cc2Cl)cc1` had an Activity of 38.73%.
In the case of `COc1ccc(C(=O)/C=C/c2ccc(O)cc2)c(O)c1CC=C(C)C`, the Ratio in test [6] was found to be 1.9.
As for `C=C(C)C(CCC(C)(C)O)Cc1c(O)cc(OC)c(C(=O)/C(O)=C/c2ccc(O)cc2O)c1O` (stereo unspecified), in test [3], the inhibition stood at 53.7%.
`O=C(/C=C/c1ccco1)c1ccc(O)cc1O`: in test [8], the IC50 stood at 2.49 µM.
`C=C(C)C(CC=C(C)C)Cc1c(O)cc(OC)c(C(=O)/C(O)=C/c2ccc(O)cc2O)c1O` (stereo unspecified): the inhibition in test [3] was 53.7%.
Turning to `CC1(C)CCc2cc(C(=O)/C=C/c3ccc(O)c(O)c3)c(O)cc2O1`, the IC50 in test [2] was determined as 5.3 µM.
Turning to `O=C(/C=C/c1ccco1)c1cccc(Cl)c1`, the IC50 in test [8] was 2.9 µM.
In the case of `CC1(C)CCc2cc(C(=O)/C=C/c3ccc(O)cc3)c(O)cc2O1`, the IC50 in test [2] came to 5.3 µM.
`CC(C)=CCc1cc(C(=O)/C=C/c2ccc(O)cc2)c(O)cc1O` [BROUSSOCHALCONE B] registered an IC50 in test [2] of 5.3 µM.

Broadly, the IC50 is the concentration needed to halve the response being measured. One may read the inhibition as the drop in the measured response relative to a control, in per cent.
